Test results reported in patent US20260325464A1, “COMPOSITIONS FOR MODULATING THE EXPRESSION OF AQUAPORINS IN NEURODEGENERATIVE DISORDERS” (priority 2023, published 2026).
Marks after values point to notes of the source that are not given here.

Columns and labels:
Format in all cases: in vivo, rat
Alzheimer's disease [1] = assay: Novel object recognition (NOR) test in rats with AlCl3-induced Alzheimer's disease; details: for % Recognition Index: p.o. + AlCl3 (100 mg/kg, i.p.), NOR at 15th day, Mean ± SEM, n = 6
Procedure: Novel object recognition (NOR)—Novel object recognition (NOR)—This test was performed as per reported protocol (Antunes M, Biala G. The novel object recognition memory: neurobiology, test procedure, and its modifications. Cognit. Process. 2012:13, 93-110). During the retrieval phase, the animal was allowed to explore the field for 10 min. The hippocampal functions were assessed through the recognition indices, which were measured according to the time spent by the animals to explore the familiar and new objects.
The test is a relatively fast and efficient means for testing learning and memory in an animal model. The test relies on only three sessions: one habituation session, one training session, and one test session and relies on rodents' natural proclivity for exploring novelty. This is a relatively low-stress, efficient test for memory in an animal model, and is appropriate for the detection of neuropsychological changes after the administration of test drugs (Lupetow L, Novel Object Recognition Test for the Investigation of Learning and Memory in Mice, J Vis Exp. 2017; (126): 55718).

Alzheimer's disease [2] = assay: Elevated plus maze (EPM) test in rats with AlCl3-induced Alzheimer's disease; details: for EPM at 16th day Transfer Latency / EPM at 17th day Transfer Latency: p.o. + AlCl3 (100 mg/kg, i.p.), Mean ± SEM, n = 6
Procedure: Elevated plus maze (EPM)—Elevated plus maze (EPM)—This test was performed as per reported protocol (Bhuvanendran et al., Amelioration of cognitive deficit by Embelin in a Scopolamine-induced Alzheimer's disease-like condition in a rat model. Front Pharmacol. 2018:9(6):1-12 and Biradar et al., (2020) Experimental validation and network pharmacology evaluation to decipher the mechanism of action of Erythrina variegata L. bark against scopolamine-induced memory impairment in rats. Adv Tradit Med. 2020:26:1-4). EPM contains 2 closed and 2 open arms (four arms; equal dimensions of 50×10 cm). These 4 arms connect at central with a 10×10 cm square gap as an initial point. The transfer latency (TL) was recorded via stopwatch by keeping rats independently toward one side of the open arm. The EPM TL cut-off was set to 60 s throughout the study. […] Index of memory improvement is measured as a drop of transfer Latency (TL) by test drug.
The elevated plus maze is a test that is widely used to assess the anti-anxiety effects of test substances. As the test measures open arm activity, an increase in open arm activity (duration and/or entries) reflects anti-anxiety behaviour (Walf et al., The use of the elevated plus maze as an assay of anxiety-related behavior in rodents, Nat Protoc. 2007; 2(2): 322-328). In the present study, inducing Alzheimer's in the animals increased their anxiety which was reduced by the administration on Gingerenone A (Table 3).

IL-1β = assay: Inflammatory marker IL-1β (ELISA), AlCl3 Alzheimer's model; details: for IL-1β: p.o. + AlCl3 (100 mg/kg, i.p.), n = 6
From the text: The inflammatory markers Fibrinogen, IL-1β were estimated using ELISA kit (Krishgen Biosystems, India).

Dopamine = Dopamine in brain (kinetic spectrophotometric), reserpine Parkinson's model; details: for Dopamine: p.o. + Reserpine (4 mg/kg, s.c.), brain, Mean ± SEM, n = 6
From the text: The induction of Parkinson's disease and measurement of other parameters were done as per the reported protocol (Santos et al., Cognitive, motor and tyrosine hydroxylase temporal impairment in a model of parkinsonism induced by reserpine. Behav Brain Res. 2013; 253:68-77 and Shishehbore et al. A novel kinetic spectrophotometric method for the determination of dopamine in biological and pharmaceutical samples. J Chem. 2013; 2013:1-6). Induction of Parkinson's disease was done by administering Resperine, which inhibits the monoamine vesicular transporters, thus decreasing the levels of monoamine neurotransmitters in the brain. Following pretreatment for 14 days with Gingerenone A, the rat groups received subcutaneous injections of reserpine (4 mg/kg) for the final five days of the treatment regimen. Resperine (5 mg) was dissolved in 1 ml of 1% acetic acid and then diluted tenfold with distilled water to achieve a final concentration of 500 μg/ml. The normal control group received saline with 1% acetic acid for 14 days, administered from day 10 to day 14. Thirty minutes following the administration of reserpine on the 14th day, behavioural assessments were conducted using the Open Field test, Y Maze, and Catalepsy tests to evaluate changes. […] Upon completion of the study, brains were harvested for biochemical analyses and histopathological studies. The experimental group is depicted in table 10.
Dopamine—Studies have shown that symptoms of Parkinson's develop in patients with an 80 percent or greater loss of dopamine-producing cells in the substantia nigra. Normally, dopamine operates in a delicate balance with other neurotransmitters to help coordinate the millions of nerve and muscle cells involved in movement. Neurons of the substantia nigra communicate with neurons of the basal ganglia by liberating the neurotransmitter dopamine (DA). Such an interaction at the biochemical level is responsible for the fine tuning of the movements. The proposed method for the estimation of dopamine is based on inhibitory effect of dopamine on the oxidation of thionine by bromate in acidic media. The change in absorbance was recorded spectrophotometrically at 601 nm (Shishehbore et al., Novel Kinetic Spectrophotometric Method for the Determination of Dopamine in Biological and Pharmaceutical Samples. 2013. Article ID 819460, https://doi.org/10.1155/2013/819460).

## COc1cc(CC/C=C/C(=O)CCc2ccc(O)c(OC)c2)ccc1O [Gingerenone A]
Alzheimer's disease [1]; 5 mg/kg
  % Recognition Index: 56.23 ± 2.35%
Alzheimer's disease [1]; 10 mg/kg
  % Recognition Index: 65.54 ± 2.78 %
Alzheimer's disease [1]; 20 mg/kg
  % Recognition Index: 66.53 ± 3.20 %
Alzheimer's disease [1]; AlCl3 model, Table 2
  recognition index (in words): effectively improved the scores
Alzheimer's disease [2]; 5 mg/kg
  EPM at 16th day Transfer Latency: 25.70 ± 0.88 s
  EPM at 17th day Transfer Latency: 25.21 ± 1.04 s
Alzheimer's disease [2]; 10 mg/kg
  EPM at 16th day Transfer Latency: 21.76 ± 1.03 s
  EPM at 17th day Transfer Latency: 19.37 ± 0.47 s
Alzheimer's disease [2]; 20 mg/kg
  EPM at 16th day Transfer Latency: 19.38 ± 0.87 s
  EPM at 17th day Transfer Latency: 18.59 ± 0.86 s
Alzheimer's disease [2]; AlCl3 model, Table 3
  anxiety in EPM (in words): reduced
IL-1β; 5 mg/kg
  IL-1β: 97.92 pg/mL
IL-1β; 10 mg/kg
  IL-1β: 84.90* pg/ml
IL-1β; 20 mg/kg
  IL-1β: 80.65** pg/ml
IL-1β; AlCl3 model, Table 9
  IL-1β (in words): significantly reduced
Dopamine; 5 mg/kg
  Dopamine: 0.124 ± 0.007 µg/mL
Dopamine; 10 mg/kg
  Dopamine: 0.142 ± 0.011 µg/mL
Dopamine; 20 mg/kg
  Dopamine: 0.141 ± 0.011 µg/mL
Dopamine; reserpine model, Table 14
  dopamine levels (in words): increased
